Some test systems named below: OVCAR-3 ovarian; MOLT-4 leukemia; HT29 colon; 786-0 renal; DU-145 prostate; OVCAR-8 ovarian; COLO 205 colon; IGROV1 ovarian; EKVX NSCLC; NCI-H460 lung; A549 NSCLC; UACC-257 melanoma; SNB-75 CNS; A498 renal; NCI-H226 lung; HOP-92 NSCLC; NCI-H23 lung; OVCAR-5 ovarian; SW-620 colon; SK-MEL-2 melanoma.
Common to all, as to assay: NCI tumour cell line growth inhibition, 48 h

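In this assay, cells in 96-well plates receive the compound at five concentrations for 48 hours. Endpoints are linearly interpolated between the surrounding concentrations. At the TGI there is no net growth.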

As to `CC1(C)C/C(=N/O)c2c(nc3ccc4ccccc4c3c2-c2ccc(Cl)cc2)C1`, the TGI with OVCAR-3 ovarian turned out to be 24.7 µM; with MOLT-4 leukemia it was 52.6 µM; with HT29 colon it was 33.5 µM; in the experiment on 786-0 renal it was 15.2 µM; in the experiment with DU-145 prostate, 40.9 µM; with OVCAR-8 ovarian, 25 µM. For the same molecule, the TGI in the experiment with COLO 205 colon was 72.8 µM; with IGROV1 ovarian it was 31.6 µM; in the experiment with EKVX NSCLC, 29.7 µM; in the experiment with NCI-H460 lung it was 19.7 µM; in the experiment with A549 NSCLC, 51 µM; in the experiment on UACC-257 melanoma, 91.2 µM. Besides, the TGI was 35.7 µM in the experiment with SNB-75 CNS; 39.6 µM in the experiment with A498 renal; 46.3 µM in the experiment on NCI-H226 lung; 42.2 µM in the experiment with HOP-92 NSCLC; 46.7 µM with NCI-H23 lung; over 100 µM in the experiment with OVCAR-5 ovarian. Further, the TGI with SW-620 colon is 77.9 µM; in the experiment with SK-MEL-2 melanoma it was over 100 µM.
For `C[C@]12C[C@@H](c3ccccc3)Nc3ccccc3N1C(c1ccccc1)=NO2`, the TGI in the experiment on OVCAR-3 ovarian was over 100 µM; in the experiment on MOLT-4 leukemia, 43.5 µM; in the experiment on HT29 colon, over 100 µM; in the experiment on 786-0 renal, over 100 µM; with DU-145 prostate, over 100 µM; in the experiment on OVCAR-8 ovarian it was over 100 µM. Moreover, the TGI was 34.7 µM in the experiment on COLO 205 colon; over 100 µM with IGROV1 ovarian; 79.3 µM with EKVX NSCLC; over 100 µM with NCI-H460 lung; over 100 µM in the experiment with A549 NSCLC; over 100 µM with UACC-257 melanoma. The TGI with SNB-75 CNS is 69.4 µM; in the experiment on A498 renal it was over 100 µM; with NCI-H226 lung it was 90.8 µM; in the experiment on HOP-92 NSCLC, 58.4 µM; in the experiment with NCI-H23 lung, over 100 µM; in the experiment on OVCAR-5 ovarian it was over 100 µM. The TGI is over 100 µM in the experiment on SW-620 colon and 76.3 µM in the experiment with SK-MEL-2 melanoma.
With `C=CCc1ccccc1CC1(OCC)OC(=O)c2ccccc21` (stereo not given), the TGI in the experiment on OVCAR-3 ovarian, with MOLT-4 leukemia, in the experiment on HT29 colon, in the experiment with 786-0 renal, in the experiment on DU-145 prostate and in the experiment with OVCAR-8 ovarian was over 100 µM in each case. Further, the TGI in the experiment on COLO 205 colon, with IGROV1 ovarian, in the experiment on EKVX NSCLC, in the experiment on NCI-H460 lung, with A549 NSCLC and with UACC-257 melanoma was over 100 µM throughout. In addition, the TGI in the experiment with SNB-75 CNS is 53.1 µM; in the experiment on A498 renal, over 100 µM; with NCI-H226 lung it was over 100 µM; in the experiment on HOP-92 NSCLC, over 100 µM; in the experiment with NCI-H23 lung, over 100 µM; in the experiment on OVCAR-5 ovarian it was over 100 µM. For the same molecule, the TGI in the experiment with SW-620 colon and with SK-MEL-2 melanoma was over 100 µM in each case.
As for `Nc1[nH]c(=S)c2c(N)n[nH]c2c1C(=O)Nc1ccccc1`, the TGI with OVCAR-3 ovarian, in the experiment on MOLT-4 leukemia, in the experiment with HT29 colon, in the experiment on 786-0 renal, in the experiment on DU-145 prostate and in the experiment on OVCAR-8 ovarian was over 100 µM throughout. The TGI with COLO 205 colon, in the experiment with IGROV1 ovarian, with EKVX NSCLC, in the experiment on NCI-H460 lung, in the experiment with A549 NSCLC and in the experiment with UACC-257 melanoma was over 100 µM in each case. Moreover, the TGI with SNB-75 CNS, in the experiment with A498 renal, in the experiment on NCI-H226 lung, in the experiment on HOP-92 NSCLC, in the experiment with NCI-H23 lung and in the experiment on OVCAR-5 ovarian was over 100 µM each time. The TGI with SW-620 colon and in the experiment on SK-MEL-2 melanoma was over 100 µM each time.
Consider `Cc1ccc(N2CCC3(CC2)OCCO3)cc1`, for which the TGI in the experiment on OVCAR-3 ovarian, in the experiment on MOLT-4 leukemia, in the experiment on HT29 colon, in the experiment on 786-0 renal, in the experiment on DU-145 prostate and in the experiment with OVCAR-8 ovarian was over 100 µM each time. For the same molecule, the TGI with COLO 205 colon, in the experiment with IGROV1 ovarian, in the experiment on EKVX NSCLC, in the experiment on NCI-H460 lung, in the experiment with A549 NSCLC and in the experiment with UACC-257 melanoma was over 100 µM each time. Further, the TGI in the experiment with SNB-75 CNS, in the experiment with A498 renal, in the experiment with NCI-H226 lung, in the experiment with HOP-92 NSCLC, in the experiment with NCI-H23 lung and in the experiment with OVCAR-5 ovarian was over 100 µM in each case. For the same molecule, the TGI with SW-620 colon and with SK-MEL-2 melanoma was over 100 µM throughout.
On to `CCN(C(C)=O)c1cnc(/C=N/NC(N)=S)c2ccccc12`, for which the TGI with OVCAR-3 ovarian was over 100 µM; with MOLT-4 leukemia it was over 31.5 µM; with HT29 colon, over 100 µM; in the experiment on 786-0 renal, over 26.6 µM; with DU-145 prostate, over 25 µM; in the experiment on OVCAR-8 ovarian it was over 34.6 µM. Besides, the TGI is over 100 µM in the experiment on COLO 205 colon; over 100 µM in the experiment on IGROV1 ovarian; over 100 µM in the experiment with EKVX NSCLC; over 39.1 µM in the experiment with NCI-H460 lung; over 88.3 µM in the experiment on A549 NSCLC; over 100 µM with UACC-257 melanoma. Besides, the TGI was over 100 µM in the experiment on SNB-75 CNS; over 91.6 µM in the experiment on A498 renal; over 100 µM in the experiment with NCI-H226 lung; over 100 µM in the experiment on HOP-92 NSCLC; over 100 µM with NCI-H23 lung; over 100 µM in the experiment with OVCAR-5 ovarian. For the same molecule, the TGI in the experiment with SW-620 colon and in the experiment on SK-MEL-2 melanoma was over 100 µM each time.
Regarding `C=CCN1C(=O)/C(=C/c2ccc(C)cc2)NC1=S`, the TGI with OVCAR-3 ovarian, in the experiment on MOLT-4 leukemia, with HT29 colon, in the experiment with 786-0 renal, in the experiment on DU-145 prostate and in the experiment with OVCAR-8 ovarian was over 100 µM in each case. The TGI is over 100 µM with COLO 205 colon; over 100 µM in the experiment on IGROV1 ovarian; 97.1 µM in the experiment on EKVX NSCLC; over 100 µM with NCI-H460 lung; over 100 µM in the experiment on A549 NSCLC; over 100 µM in the experiment on UACC-257 melanoma. Moreover, the TGI in the experiment on SNB-75 CNS, in the experiment with A498 renal, in the experiment on NCI-H226 lung, with HOP-92 NSCLC, in the experiment on NCI-H23 lung and in the experiment on OVCAR-5 ovarian was over 100 µM throughout. Besides, the TGI with SW-620 colon and with SK-MEL-2 melanoma was over 100 µM each time.
In the case of `OC1[C@H](O)CN(OCc2ccccc2)C[C@@H]1O` (stereo not given in full), the TGI in the experiment on OVCAR-3 ovarian, in the experiment on MOLT-4 leukemia, with HT29 colon, in the experiment on 786-0 renal, in the experiment with DU-145 prostate and in the experiment with OVCAR-8 ovarian was over 100 µM each time. The TGI with COLO 205 colon, in the experiment with IGROV1 ovarian, with EKVX NSCLC, in the experiment on NCI-H460 lung, in the experiment with A549 NSCLC and in the experiment on UACC-257 melanoma was over 100 µM in each case. Further, the TGI in the experiment with SNB-75 CNS, in the experiment with A498 renal, in the experiment with NCI-H226 lung, in the experiment with HOP-92 NSCLC, in the experiment on NCI-H23 lung and in the experiment with OVCAR-5 ovarian was over 100 µM in each case. Further, the TGI with SW-620 colon and in the experiment on SK-MEL-2 melanoma was over 100 µM throughout.
As to `COc1ccc(NC(=O)/C(=N/NC(N)=S)C2C(=O)NC(=S)NC2=O)c(OC)c1`, the TGI in the experiment on OVCAR-3 ovarian, in the experiment on MOLT-4 leukemia, in the experiment with HT29 colon, in the experiment with 786-0 renal, with DU-145 prostate and in the experiment with OVCAR-8 ovarian was over 100 µM each time. Besides, the TGI with COLO 205 colon, with IGROV1 ovarian, with EKVX NSCLC, in the experiment with NCI-H460 lung, with A549 NSCLC and in the experiment with UACC-257 melanoma was over 100 µM throughout. Also, the TGI in the experiment on SNB-75 CNS, in the experiment with A498 renal, in the experiment with NCI-H226 lung, in the experiment on HOP-92 NSCLC, in the experiment on NCI-H23 lung and in the experiment with OVCAR-5 ovarian was over 100 µM each time. For the same molecule, the TGI in the experiment with SW-620 colon and in the experiment with SK-MEL-2 melanoma was over 100 µM throughout.
Turning to `CCCCN(Cc1ccccc1)C(=NC#N)N(Cc1ccccc1)Cc1ccccc1`, the TGI in the experiment on OVCAR-3 ovarian was 28.9 µM; in the experiment with MOLT-4 leukemia, over 100 µM; in the experiment on HT29 colon it was 85.2 µM; in the experiment on 786-0 renal, 56.2 µM; with DU-145 prostate, over 100 µM; in the experiment on OVCAR-8 ovarian it was over 100 µM. The TGI is 32.2 µM with COLO 205 colon; over 89.5 µM with IGROV1 ovarian; over 100 µM in the experiment with EKVX NSCLC; over 100 µM with NCI-H460 lung; over 100 µM in the experiment on A549 NSCLC; 50.7 µM in the experiment on UACC-257 melanoma. Further, the TGI in the experiment with SNB-75 CNS was 71.4 µM; with A498 renal it was over 100 µM; in the experiment on NCI-H226 lung, 70.5 µM; in the experiment on HOP-92 NSCLC it was 53.1 µM; in the experiment with NCI-H23 lung it was over 74.5 µM; with OVCAR-5 ovarian, over 100 µM. Moreover, the TGI with SW-620 colon was over 100 µM; in the experiment on SK-MEL-2 melanoma it was 37.6 µM.
As for `Cn1c(Cl)cn2c3nc4ccccc4nc3c(=O)c(C#N)c12`, the TGI with OVCAR-3 ovarian, with MOLT-4 leukemia, in the experiment on HT29 colon, in the experiment with 786-0 renal, with DU-145 prostate and in the experiment with OVCAR-8 ovarian was over 100 µM each time. Also, the TGI with COLO 205 colon, with IGROV1 ovarian, in the experiment on EKVX NSCLC, with NCI-H460 lung, in the experiment with A549 NSCLC and in the experiment on UACC-257 melanoma was over 100 µM each time. Moreover, the TGI is over 81.5 µM with SNB-75 CNS; 98.8 µM in the experiment with A498 renal; over 100 µM with NCI-H226 lung; over 100 µM in the experiment on HOP-92 NSCLC; over 100 µM with NCI-H23 lung; over 100 µM in the experiment on OVCAR-5 ovarian. Further, the TGI with SW-620 colon and in the experiment on SK-MEL-2 melanoma was over 100 µM throughout.

The values are drawn from PubChem BioAssay (NCI).
